According to ChEMBL document CHEMBL5154882, “Discovery of 4-Hydroxyquinazoline Derivatives as Small Molecular BET/PARP1 Inhibitors That Induce Defective Homologous Recombination and Lead to Synthetic Lethality for Triple-Negative Breast Cancer Therapy” (J Med Chem, 2022):

System: MDA-MB-231
Assay: Antiproliferative activity against human MDA-MB-231 cells assessed as reduction in cell viability incubated for 72 hrs by MTT assay
Type: functional, cell-based
Conditions: MDA-MB-231, 72 h

| SMILES | IC50 [µM] |
| --- | --- |
| COc1cc(OC)c2nc(-c3ccc(Cc4n[nH]c(=O)c5ccccc45)c(C)c3)[nH]c(=O)c2c1 | 17.9 |
| O=c1[nH]c(-c2cc(Cc3n[nH]c(=O)c4ccccc34)ccc2F)nc2ccc(F)cc12 | 18.6 |
| O=c1[nH]c(-c2ccc(Cc3n[nH]c(=O)c4ccccc34)c(F)c2)nc2ccc(F)cc12 | 22 |
| O=c1[nH]c(-c2ccc(Cc3n[nH]c(=O)c4ccccc34)cc2)nc2ccccc12 | 25 |
| Cc1cc(-c2nc3ccc(F)cc3c(=O)[nH]2)ccc1Cc1n[nH]c(=O)c2ccccc12 | 25.1 |
| Cc1cc(-c2nc3ccc(Br)cc3c(=O)[nH]2)ccc1Cc1n[nH]c(=O)c2ccccc12 | 28.2 |
| COc1cc(-c2nc3cccc(Cl)c3c(=O)[nH]2)ccc1Cc1n[nH]c(=O)c2ccccc12 | 35.1 |
| O=c1[nH]nc(Cc2cc(F)cc(-c3nc4cccc(Cl)c4c(=O)[nH]3)c2)c2ccccc12 | 13.4 |
| O=c1[nH]c(-c2cc(F)cc(Cc3n[nH]c(=O)c4ccccc34)c2)nc2ccc(F)cc12 | 13.2 |
| O=c1[nH]nc(Cc2ccc(-c3nc4cccc(Cl)c4c(=O)[nH]3)cc2)c2ccccc12 | 21 |
| O=c1[nH]nc(Cc2ccc(-c3nc4cccc(Cl)c4c(=O)[nH]3)cc2F)c2ccccc12 | 22 |
| Cc1cccc2c(=O)[nH]c(-c3cc(Cc4n[nH]c(=O)c5ccccc45)ccc3F)nc12 | 38.2 |
| Cc1cccc2nc(-c3cccc(Cc4n[nH]c(=O)c5ccccc45)c3)[nH]c(=O)c12 | 24.6 |

The next lines start with the values.

| IC50 [µM] | SMILES |
| --- | --- |
| 24.1 | O=c1[nH]c(-c2cc(Cc3n[nH]c(=O)c4ccccc34)ccc2F)nc2ccc(Br)cc12 |
| 16.5 | O=c1[nH]c(-c2ccc(Cc3n[nH]c(=O)c4ccccc34)cc2)nc2ccc(F)cc12 |
| 22.1 | COc1cc(OC)c2nc(-c3cc(Cc4n[nH]c(=O)c5ccccc45)ccc3F)[nH]c(=O)c2c1 |
| 24.5 | O=c1[nH]c(-c2ccc(Cc3n[nH]c(=O)c4ccccc34)cc2)nc2ccc(Br)cc12 |
| 11 | O=c1[nH]nc(Cc2cccc(-c3nc4cccc(Cl)c4c(=O)[nH]3)c2)c2ccccc12 |
| 21.1 | O=c1[nH]c(-c2cc(Cc3n[nH]c(=O)c4ccccc34)ccc2F)nc2ccc(Cl)cc12 |
| > 40 | COc1cc(-c2nc3ccccc3c(=O)[nH]2)ccc1Cc1n[nH]c(=O)c2ccccc12 |
| 17.7 | O=c1[nH]c(-c2cc(F)cc(Cc3n[nH]c(=O)c4ccccc34)c2)nc2ccccc12 |
| 33.6 | COc1ccc2nc(-c3ccc(Cc4n[nH]c(=O)c5ccccc45)c(OC)c3)[nH]c(=O)c2c1 |
| 26 | COc1cc(-c2nc3ccc(F)cc3c(=O)[nH]2)ccc1Cc1n[nH]c(=O)c2ccccc12 |
| 36 | Cc1cc(-c2nc3ccccc3c(=O)[nH]2)ccc1Cc1n[nH]c(=O)c2ccccc12 |

System: MDA-MB-468
Assay: Antiproliferative activity against human MDA-MB-468 cells assessed as reduction in cell viability incubated for 72 hrs by MTT assay
Type: functional, cell-based
Conditions: MDA-MB-468, 72 h

| SMILES | IC50 [µM] |
| --- | --- |
| COc1cc(OC)c2nc(-c3ccc(Cc4n[nH]c(=O)c5ccccc45)c(C)c3)[nH]c(=O)c2c1 | 13 |
| O=c1[nH]c(-c2cc(Cc3n[nH]c(=O)c4ccccc34)ccc2F)nc2ccc(F)cc12 | 19.1 |
| O=c1[nH]c(-c2ccc(Cc3n[nH]c(=O)c4ccccc34)c(F)c2)nc2ccc(F)cc12 | 17.2 |
| O=c1[nH]c(-c2ccc(Cc3n[nH]c(=O)c4ccccc34)cc2)nc2ccccc12 | 25.4 |
| Cc1cc(-c2nc3ccc(F)cc3c(=O)[nH]2)ccc1Cc1n[nH]c(=O)c2ccccc12 | 20.2 |
| Cc1cc(-c2nc3ccc(Br)cc3c(=O)[nH]2)ccc1Cc1n[nH]c(=O)c2ccccc12 | 24.5 |
| COc1cc(-c2nc3cccc(Cl)c3c(=O)[nH]2)ccc1Cc1n[nH]c(=O)c2ccccc12 | 34.7 |
| O=c1[nH]nc(Cc2cc(F)cc(-c3nc4cccc(Cl)c4c(=O)[nH]3)c2)c2ccccc12 | 14.7 |
| O=c1[nH]c(-c2cc(F)cc(Cc3n[nH]c(=O)c4ccccc34)c2)nc2ccc(F)cc12 | 12.1 |
| O=c1[nH]nc(Cc2ccc(-c3nc4cccc(Cl)c4c(=O)[nH]3)cc2)c2ccccc12 | 15.4 |
| O=c1[nH]nc(Cc2ccc(-c3nc4cccc(Cl)c4c(=O)[nH]3)cc2F)c2ccccc12 | 21.2 |
| Cc1cccc2c(=O)[nH]c(-c3cc(Cc4n[nH]c(=O)c5ccccc45)ccc3F)nc12 | 35.6 |
| Cc1cccc2nc(-c3cccc(Cc4n[nH]c(=O)c5ccccc45)c3)[nH]c(=O)c12 | 15.4 |

Results, then the compound that gave them:

| IC50 [µM] | SMILES |
| --- | --- |
| 19.5 | O=c1[nH]c(-c2cc(Cc3n[nH]c(=O)c4ccccc34)ccc2F)nc2ccc(Br)cc12 |
| 14 | O=c1[nH]c(-c2ccc(Cc3n[nH]c(=O)c4ccccc34)cc2)nc2ccc(F)cc12 |
| 18.6 | COc1cc(OC)c2nc(-c3cc(Cc4n[nH]c(=O)c5ccccc45)ccc3F)[nH]c(=O)c2c1 |
| 18.8 | O=c1[nH]c(-c2ccc(Cc3n[nH]c(=O)c4ccccc34)cc2)nc2ccc(Br)cc12 |
| 7.3 | O=c1[nH]nc(Cc2cccc(-c3nc4cccc(Cl)c4c(=O)[nH]3)c2)c2ccccc12 |
| 20.8 | O=c1[nH]c(-c2cc(Cc3n[nH]c(=O)c4ccccc34)ccc2F)nc2ccc(Cl)cc12 |
| > 40 | COc1cc(-c2nc3ccccc3c(=O)[nH]2)ccc1Cc1n[nH]c(=O)c2ccccc12 |
| 14.2 | O=c1[nH]c(-c2cc(F)cc(Cc3n[nH]c(=O)c4ccccc34)c2)nc2ccccc12 |
| 28.3 | COc1ccc2nc(-c3ccc(Cc4n[nH]c(=O)c5ccccc45)c(OC)c3)[nH]c(=O)c2c1 |
| 31.4 | COc1cc(-c2nc3ccc(F)cc3c(=O)[nH]2)ccc1Cc1n[nH]c(=O)c2ccccc12 |
| 28.2 | Cc1cc(-c2nc3ccccc3c(=O)[nH]2)ccc1Cc1n[nH]c(=O)c2ccccc12 |

Target: Bromodomain-containing protein 4 (Homo sapiens, UniProt O60885)
Assay: Inhibition of BRD4 (unknown origin) at 1 uM relative to control
Conditions: not given

| SMILES | inhibition [%] |
| --- | --- |
| COc1cc(OC)c2nc(-c3ccc(Cc4n[nH]c(=O)c5ccccc45)c(C)c3)[nH]c(=O)c2c1 | 67.8 |
| O=c1[nH]c(-c2cc(Cc3n[nH]c(=O)c4ccccc34)ccc2F)nc2ccc(F)cc12 | 43.7 |
| O=c1[nH]c(-c2ccc(Cc3n[nH]c(=O)c4ccccc34)c(F)c2)nc2ccc(F)cc12 | 53.3 |
| O=c1[nH]c(-c2ccc(Cc3n[nH]c(=O)c4ccccc34)cc2)nc2ccccc12 | 33 |
| Cc1cc(-c2nc3ccc(F)cc3c(=O)[nH]2)ccc1Cc1n[nH]c(=O)c2ccccc12 | 54.2 |
| Cc1cc(-c2nc3ccc(Br)cc3c(=O)[nH]2)ccc1Cc1n[nH]c(=O)c2ccccc12 | 52.3 |
| COc1cc(-c2nc3cccc(Cl)c3c(=O)[nH]2)ccc1Cc1n[nH]c(=O)c2ccccc12 | 43.3 |
| O=c1[nH]nc(Cc2cc(F)cc(-c3nc4cccc(Cl)c4c(=O)[nH]3)c2)c2ccccc12 | 52.8 |
| O=c1[nH]c(-c2cc(F)cc(Cc3n[nH]c(=O)c4ccccc34)c2)nc2ccc(F)cc12 | 51.2 |
| O=c1[nH]nc(Cc2ccc(-c3nc4cccc(Cl)c4c(=O)[nH]3)cc2)c2ccccc12 | 48.9 |
| O=c1[nH]nc(Cc2ccc(-c3nc4cccc(Cl)c4c(=O)[nH]3)cc2F)c2ccccc12 | 53.4 |
| Cc1cccc2c(=O)[nH]c(-c3cc(Cc4n[nH]c(=O)c5ccccc45)ccc3F)nc12 | 31.2 |
| Cc1cccc2nc(-c3cccc(Cc4n[nH]c(=O)c5ccccc45)c3)[nH]c(=O)c12 | 49.6 |

Continued, values first:

| inhibition [%] | SMILES |
| --- | --- |
| 39.5 | O=c1[nH]c(-c2cc(Cc3n[nH]c(=O)c4ccccc34)ccc2F)nc2ccc(Br)cc12 |
| 47.2 | O=c1[nH]c(-c2ccc(Cc3n[nH]c(=O)c4ccccc34)cc2)nc2ccc(F)cc12 |
| 47.5 | COc1cc(OC)c2nc(-c3cc(Cc4n[nH]c(=O)c5ccccc45)ccc3F)[nH]c(=O)c2c1 |
| 46 | O=c1[nH]c(-c2ccc(Cc3n[nH]c(=O)c4ccccc34)cc2)nc2ccc(Br)cc12 |
| 64.8 | O=c1[nH]nc(Cc2cccc(-c3nc4cccc(Cl)c4c(=O)[nH]3)c2)c2ccccc12 |
| 42.6 | O=c1[nH]c(-c2cc(Cc3n[nH]c(=O)c4ccccc34)ccc2F)nc2ccc(Cl)cc12 |
| 31.3 | COc1cc(-c2nc3ccccc3c(=O)[nH]2)ccc1Cc1n[nH]c(=O)c2ccccc12 |
| 45.5 | O=c1[nH]c(-c2cc(F)cc(Cc3n[nH]c(=O)c4ccccc34)c2)nc2ccccc12 |
| 45.2 | COc1ccc2nc(-c3ccc(Cc4n[nH]c(=O)c5ccccc45)c(OC)c3)[nH]c(=O)c2c1 |
| 41.5 | COc1cc(-c2nc3ccc(F)cc3c(=O)[nH]2)ccc1Cc1n[nH]c(=O)c2ccccc12 |
| 42.1 | Cc1cc(-c2nc3ccccc3c(=O)[nH]2)ccc1Cc1n[nH]c(=O)c2ccccc12 |

Target: Poly [ADP-ribose] polymerase 1 (Homo sapiens, UniProt P09874)
Assay: Inhibition of PARP1 (unknown origin) at 1 uM relative to control
Conditions: not given

Poly [ADP-ribose] polymerase 1, sequence (P09874 whole entry): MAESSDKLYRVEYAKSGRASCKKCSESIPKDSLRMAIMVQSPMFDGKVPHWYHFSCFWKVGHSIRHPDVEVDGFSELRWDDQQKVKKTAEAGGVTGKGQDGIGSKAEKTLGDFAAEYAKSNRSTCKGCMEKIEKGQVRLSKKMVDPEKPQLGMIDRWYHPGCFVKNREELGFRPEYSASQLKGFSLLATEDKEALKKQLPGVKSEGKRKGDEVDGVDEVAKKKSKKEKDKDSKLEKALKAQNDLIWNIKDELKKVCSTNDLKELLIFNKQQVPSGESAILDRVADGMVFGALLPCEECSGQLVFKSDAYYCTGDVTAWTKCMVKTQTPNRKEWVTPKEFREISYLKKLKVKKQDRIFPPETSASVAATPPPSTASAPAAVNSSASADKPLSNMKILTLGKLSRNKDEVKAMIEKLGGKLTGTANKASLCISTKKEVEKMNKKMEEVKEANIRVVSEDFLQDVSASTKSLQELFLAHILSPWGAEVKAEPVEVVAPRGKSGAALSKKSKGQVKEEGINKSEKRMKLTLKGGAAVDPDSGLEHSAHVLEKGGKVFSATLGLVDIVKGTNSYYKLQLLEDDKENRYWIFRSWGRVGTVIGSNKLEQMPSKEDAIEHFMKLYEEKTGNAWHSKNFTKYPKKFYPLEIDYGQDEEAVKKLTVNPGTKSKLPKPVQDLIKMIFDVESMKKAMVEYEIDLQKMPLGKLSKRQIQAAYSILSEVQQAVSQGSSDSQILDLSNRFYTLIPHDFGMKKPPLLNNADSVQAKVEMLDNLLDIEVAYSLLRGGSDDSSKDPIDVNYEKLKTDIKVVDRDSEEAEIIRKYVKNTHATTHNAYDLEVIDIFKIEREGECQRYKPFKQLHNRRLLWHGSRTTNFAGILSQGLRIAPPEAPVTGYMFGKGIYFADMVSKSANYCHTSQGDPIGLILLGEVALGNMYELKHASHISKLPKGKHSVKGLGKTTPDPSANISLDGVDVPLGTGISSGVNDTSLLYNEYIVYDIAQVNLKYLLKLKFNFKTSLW

| SMILES | inhibition [%] |
| --- | --- |
| COc1cc(OC)c2nc(-c3ccc(Cc4n[nH]c(=O)c5ccccc45)c(C)c3)[nH]c(=O)c2c1 | 55 |
| O=c1[nH]c(-c2cc(Cc3n[nH]c(=O)c4ccccc34)ccc2F)nc2ccc(F)cc12 | 68.5 |
| O=c1[nH]c(-c2ccc(Cc3n[nH]c(=O)c4ccccc34)c(F)c2)nc2ccc(F)cc12 | 38.2 |
| O=c1[nH]c(-c2ccc(Cc3n[nH]c(=O)c4ccccc34)cc2)nc2ccccc12 | 63.8 |
| Cc1cc(-c2nc3ccc(F)cc3c(=O)[nH]2)ccc1Cc1n[nH]c(=O)c2ccccc12 | 49.5 |
| Cc1cc(-c2nc3ccc(Br)cc3c(=O)[nH]2)ccc1Cc1n[nH]c(=O)c2ccccc12 | 43.8 |
| COc1cc(-c2nc3cccc(Cl)c3c(=O)[nH]2)ccc1Cc1n[nH]c(=O)c2ccccc12 | 33.9 |
| O=c1[nH]nc(Cc2cc(F)cc(-c3nc4cccc(Cl)c4c(=O)[nH]3)c2)c2ccccc12 | 75.1 |
| O=c1[nH]c(-c2cc(F)cc(Cc3n[nH]c(=O)c4ccccc34)c2)nc2ccc(F)cc12 | 77.5 |
| O=c1[nH]nc(Cc2ccc(-c3nc4cccc(Cl)c4c(=O)[nH]3)cc2)c2ccccc12 | 58.5 |
| O=c1[nH]nc(Cc2ccc(-c3nc4cccc(Cl)c4c(=O)[nH]3)cc2F)c2ccccc12 | 38.5 |
| Cc1cccc2c(=O)[nH]c(-c3cc(Cc4n[nH]c(=O)c5ccccc45)ccc3F)nc12 | 61 |
| Cc1cccc2nc(-c3cccc(Cc4n[nH]c(=O)c5ccccc45)c3)[nH]c(=O)c12 | 76.3 |

More lines, now with the values ahead:

| inhibition [%] | SMILES |
| --- | --- |
| 76.8 | O=c1[nH]c(-c2cc(Cc3n[nH]c(=O)c4ccccc34)ccc2F)nc2ccc(Br)cc12 |
| 58.2 | O=c1[nH]c(-c2ccc(Cc3n[nH]c(=O)c4ccccc34)cc2)nc2ccc(F)cc12 |
| 72 | COc1cc(OC)c2nc(-c3cc(Cc4n[nH]c(=O)c5ccccc45)ccc3F)[nH]c(=O)c2c1 |
| 53.3 | O=c1[nH]c(-c2ccc(Cc3n[nH]c(=O)c4ccccc34)cc2)nc2ccc(Br)cc12 |
| 75.3 | O=c1[nH]nc(Cc2cccc(-c3nc4cccc(Cl)c4c(=O)[nH]3)c2)c2ccccc12 |
| 68.6 | O=c1[nH]c(-c2cc(Cc3n[nH]c(=O)c4ccccc34)ccc2F)nc2ccc(Cl)cc12 |
| 46.5 | COc1cc(-c2nc3ccccc3c(=O)[nH]2)ccc1Cc1n[nH]c(=O)c2ccccc12 |
| 84.5 | O=c1[nH]c(-c2cc(F)cc(Cc3n[nH]c(=O)c4ccccc34)c2)nc2ccccc12 |
| 36.7 | COc1ccc2nc(-c3ccc(Cc4n[nH]c(=O)c5ccccc45)c(OC)c3)[nH]c(=O)c2c1 |
| 36.1 | COc1cc(-c2nc3ccc(F)cc3c(=O)[nH]2)ccc1Cc1n[nH]c(=O)c2ccccc12 |
| 46.3 | Cc1cc(-c2nc3ccccc3c(=O)[nH]2)ccc1Cc1n[nH]c(=O)c2ccccc12 |
